Laboratory results from patent US10106556B2, “Heterocyclic compound” (TAKEDA PHARMACEUTICAL COMPANY LIMITED, priority 2015, dated 2018).

Target: T1, His-hMAGL (recombinant polyhistidine tagged human MAGL protein) (Homo sapiens, UniProt Q99685)
T1 construct: made in house; host or cells: E. coli BL21(DE3)
T1 sequence (Q99685 1-303): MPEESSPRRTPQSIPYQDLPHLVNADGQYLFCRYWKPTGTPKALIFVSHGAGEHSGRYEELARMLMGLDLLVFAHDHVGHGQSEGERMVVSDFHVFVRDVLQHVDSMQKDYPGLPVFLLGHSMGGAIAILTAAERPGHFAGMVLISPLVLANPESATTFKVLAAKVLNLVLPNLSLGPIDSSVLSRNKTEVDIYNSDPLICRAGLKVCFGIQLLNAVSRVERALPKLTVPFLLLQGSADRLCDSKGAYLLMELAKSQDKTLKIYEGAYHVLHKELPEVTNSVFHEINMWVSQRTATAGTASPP
Assay: Measurement of MAGL inhibitory activity (arachidonic acid production from 2-arachidonylglycerol, RapidFire-mass spectrometry)
Assay type: biochemical
Conditions: MAGL inhibitory rate at 10 μM test compound; 60 min preincubation with His-hMAGL, 2-arachidonylglycerol substrate, 10 min reaction at room temperature
Summary of the method: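 Inhibition (%) was derived from arachidonic acid levels relative to enzyme-free and compound-free groups. Product was measured by online C4 solid-phase extraction and triple-quadrupole MS in negative SRM mode, corrected by arachidonic acid-d8 (3 μM in the acetonitrile added). Substrate was 2-arachidonylglycerol; enzyme was His-tagged recombinant human MAGL.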

An inhibition at 10 µM of 102% was found for `O=C1COc2cc(F)c(C(=O)N3CC(COc4ccc(Cl)cc4-c4ccc(C(F)(F)F)nc4)C3)cc2N1` [Example 220, 6-((3-((4-chloro-2-(6-(trifluoromethyl)pyridin-3-yl)phenoxy)methyl)azetidin-1-yl)carbonyl)-7-fluoro-2H-1,4-benzoxazin-3(4H)-one] in this work.

An inhibition at 10 µM of 101% was found for `Cc1nc2ccc(OCC3CN(C(=O)c4cc5c(cc4F)OCC(=O)N5)C3)cc2s1` [Example 152, 7-fluoro-6-((3-(((2-methyl-1,3-benzothiazol-6-yl)oxy)methyl)azetidin-1-yl)carbonyl)-2H-1,4-benzoxazin-3(4H)-one] in this work.

An inhibition at 10 µM of 97% was found for `O=C1COc2cc(F)c(C(=O)N3CC(COc4ccc(-c5ccccn5)cc4F)C3)cc2N1` [Example 227, 7-fluoro-6-((3-((2-fluoro-4-(pyridin-2-yl)phenoxy)methyl)azetidin-1-yl)carbonyl)-2H-1,4-benzoxazin-3(4H)-one] in this work.

An inhibition at 10 µM of 102% was found for `Cc1cc(C)c(OCC2CN(C(=O)c3cc4c(cc3F)OCC(=O)N4)C2)cn1` [Example 142, 6-((3-(((4,6-dimethylpyridin-3-yl)oxy)methyl)azetidin-1-yl)carbonyl)-7-fluoro-2H-1,4-benzoxazin-3(4H)-one] in this work.

An inhibition at 10 µM of 98% was found for `Cc1ncccc1-c1ccc(OCC2CN(C(=O)c3cc4c(cc3F)OCC(=O)N4)C2)c(F)c1` [Example 262, 7-fluoro-6-((3-((2-fluoro-4-(2-methylpyridin-3-yl)phenoxy)methyl)azetidin-1-yl)carbonyl)-2H-1,4-benzoxazin-3(4H)-one] in this work.

An inhibition at 10 µM of 90% was found for `O=C1COc2ccc(C(=O)N3CCC(COc4ccc(Cl)nc4)CC3)cc2N1` [Example 44, 6-((4-(((6-chloropyridin-3-yl)oxy)methyl)piperidin-1-yl)carbonyl)-2H-1,4-benzoxazin-3(4H)-one] in this work.

An inhibition at 10 µM of 98% was found for `Cc1ccccc1OCC1CCN(C(=O)c2ccc3c(c2)NC(=O)CO3)CC1` [Example 34, 6-((4-((2-methylphenoxy)methyl)piperidin-1-yl)carbonyl)-2H-1,4-benzoxazin-3(4H)-one] in this work.

An inhibition at 10 µM of 102% was found for `Cc1ncccc1-c1cc(Cl)ccc1OCC1CN(C(=O)c2cc3c(cc2F)OCC(=O)N3)C1` [Example 191, 6-((3-((4-chloro-2-(2-methylpyridin-3-yl)phenoxy)methyl)azetidin-1-yl)carbonyl)-7-fluoro-2H-1,4-benzoxazin-3(4H)-one] in this work.

An inhibition at 10 µM of 98% was found for `O=C1COc2cc(F)c(C(=O)N3CC(COc4ccc5cccnc5c4)C3)cc2N1` [Example 171, 7-fluoro-6-((3-((quinolin-7-yloxy)methyl)azetidin-1-yl)carbonyl)-2H-1,4-benzoxazin-3(4H)-one] in this work.

An inhibition at 10 µM of 92% was found for `O=C1COc2ccc(C(=O)N3CCC(COc4ccc5ccccc5c4)CC3)cc2N1` [Example 60, 6-((4-((2-naphthyloxy)methyl)piperidin-1-yl)carbonyl)-2H-1,4-benzoxazin-3(4H)-one] in this work.

An inhibition at 10 µM of 100% was found for `O=C1Cc2ccc(C(=O)N3CCC(COc4ccccc4Cl)CC3)cc2N1` [Example 28] in this work.

An inhibition at 10 µM of 100% was found for `O=C1COc2cc(F)c(C(=O)N3CCC(COC4CCCCC4)CC3)cc2N1` [Example 80, 6-((4-((cyclohexyloxy)methyl)piperidin-1-yl)carbonyl)-7-fluoro-2H-1,4-benzoxazin-3(4H)-one] in this work.

An inhibition at 10 µM of 101% was found for `O=C1COc2cc(F)c(C(=O)N3CC(COc4cccc5[nH]ncc45)C3)cc2N1` [Example 107, 7-fluoro-6-((3-((1H-indazol-4-yloxy)methyl)azetidin-1-yl)carbonyl)-2H-1,4-benzoxazin-3(4H)-one] in this work.

An inhibition at 10 µM of 102% was found for `O=C1COc2cc(F)c(C(=O)N3CC(COc4cc(F)cc(Cl)c4)C3)cc2N1` [Example 134, 6-((3-((3-chloro-5-fluorophenoxy)methyl)azetidin-1-yl)carbonyl)-7-fluoro-2H-1,4-benzoxazin-3(4H)-one] in this work.

An inhibition at 10 µM of 99% was found for `O=C(c1cc2[nH]c(=O)oc2cc1F)N1CCC(COc2ccc(F)cc2Cl)CC1` [Example 101, 5-((4-((2-chloro-4-fluorophenoxy)methyl)piperidin-1-yl)carbonyl)-6-fluoro-1,3-benzoxazol-2(3H)-one] in this work.

An inhibition at 10 µM of 97% was found for `O=C1COc2cc(F)c(C(=O)N3CC(COc4cccc5scnc45)C3)cc2N1` [Example 105, 6-((3-((1,3-benzothiazol-4-yloxy)methyl)azetidin-1-yl)carbonyl)-7-fluoro-2H-1,4-benzoxazin-3(4H)-one] in this work.

An inhibition at 10 µM of 100% was found for `O=C1COc2cc(F)c(C(=O)N3CC(COc4ccc(Cl)cc4-c4cccnc4Cl)C3)cc2N1` [Example 198, 6-((3-((4-chloro-2-(2-chloropyridin-3-yl)phenoxy)methyl)azetidin-1-yl)carbonyl)-7-fluoro-2H-1,4-benzoxazin-3(4H)-one] in this work.

An inhibition at 10 µM of 101% was found for `Cc1c(-c2ccc(OCC3CN(C(=O)c4cc5c(cc4F)OCC(=O)N5)C3)c(F)c2)cnn1C` [Example 250, 6-((3-((4-(1,5-dimethyl-1H-pyrazol-4-yl)-2-fluorophenoxy)methyl)azetidin-1-yl)carbonyl)-7-fluoro-2H-1,4-benzoxazin-3(4H)-one] in this work.

An inhibition at 10 µM of 95% was found for `O=C1COc2ncc(C(=O)N3CCC(COc4c(F)cccc4Cl)CC3)cc2N1` [Example 22, 7-((4-((2-chloro-6-fluorophenoxy)methyl)piperidin-1-yl)carbonyl)-1H-pyrido[2,3-b][1,4]oxazin-2(3H)-one] in this work.

An inhibition at 10 µM of 99% was found for `O=C1COc2cc(F)c(C(=O)N3CC(COc4ccc(Cl)cc4-c4cccnc4)C3)cc2N1` [Example 192, 6-((3-((4-chloro-2-(pyridin-3-yl)phenoxy)methyl)azetidin-1-yl)carbonyl)-7-fluoro-2H-1,4-benzoxazin-3(4H)-one] in this work.

An inhibition at 10 µM of 98% was found for `O=C1COc2ccc(C(=O)N3CCC(COc4cc(Cl)ncc4Cl)CC3)cc2N1` [Example 47, 6-((4-(((2,5-dichloropyridin-4-yl)oxy)methyl)piperidin-1-yl)carbonyl)-2H-1,4-benzoxazin-3(4H)-one] in this work.

An inhibition at 10 µM of 99% was found for `O=C1COc2cc(F)c(C(=O)N3CCC(COc4ccc(F)cc4Br)CC3)cc2N1` [Example 99, 6-((4-((2-bromo-4-fluorophenoxy)methyl)piperidin-1-yl)carbonyl)-7-fluoro-2H-1,4-benzoxazin-3(4H)-one] in this work.

An inhibition at 10 µM of 102% was found for `Cn1cccc1-c1ccc(OCC2CN(C(=O)c3cc4c(cc3F)OCC(=O)N4)C2)c(F)c1` [Example 255, 7-fluoro-6-((3-((2-fluoro-4-(1-methyl-1H-pyrrol-2-yl)phenoxy)methyl)azetidin-1-yl)carbonyl)-2H-1,4-benzoxazin-3(4H)-one] in this work.

An inhibition at 10 µM of 99% was found for `O=C1COc2cc(F)c(C(=O)N3CC(COc4ccc(-c5cccnc5Cl)cc4F)C3)cc2N1` [Example 232, 6-((3-((4-(2-chloropyridin-3-yl)-2-fluorophenoxy)methyl)azetidin-1-yl)carbonyl)-7-fluoro-2H-1,4-benzoxazin-3(4H)-one] in this work.

An inhibition at 10 µM of 101% was found for `Cc1nn(C)c(C)c1-c1cc(Cl)ccc1OCC1CN(C(=O)c2cc3c(cc2F)OCC(=O)N3)C1` [Example 267, 6-((3-((4-chloro-2-(1,3,5-trimethyl-1H-pyrazol-4-yl)phenoxy)methyl)azetidin-1-yl)carbonyl)-7-fluoro-2H-1,4-benzoxazin-3(4H)-one] in this work.

An inhibition at 10 µM of 100% was found for `O=C1COc2cc(F)c(C(=O)N3CC(OCc4ccc(Cl)cc4F)C3)cc2N1` [Example 349, 6-((3-((4-chloro-2-fluorobenzyl)oxy)azetidin-1-yl)carbonyl)-7-fluoro-2H-1,4-benzoxazin-3(4H)-one] in this work.

An inhibition at 10 µM of 97% was found for `Cn1ccc(-c2cc(Cl)ccc2OCC2CN(C(=O)c3cc4c(cc3F)OCC(=O)N4)C2)n1` [Example 216, 6-((3-((4-chloro-2-(1-methyl-1H-pyrazol-3-yl)phenoxy)methyl)azetidin-1-yl)carbonyl)-7-fluoro-2H-1,4-benzoxazin-3(4H)-one] in this work.

An inhibition at 10 µM of 99% was found for `CC(Oc1ccc(F)cc1F)C1CN(C(=O)c2cc3c(cc2F)OCC(=O)N3)C1` (centres unmarked) [Example 298, 6-((3-(1-(2,4-difluorophenoxy)ethyl)azetidin-1-yl)carbonyl)-7-fluoro-2H-1,4-benzoxazin-3(4H)-one] in this work.

An inhibition at 10 µM of 102% was found for `O=C1COc2cc(F)c(C(=O)N3CCC(COc4cccn5nccc45)CC3)cc2N1` [Example 274, 7-fluoro-6-((4-((pyrazolo[1,5-a]pyridin-4-yloxy)methyl)piperidin-1-yl)carbonyl)-2H-1,4-benzoxazin-3(4H)-one] in this work.

An inhibition at 10 µM of 100% was found for `O=C1COc2cc(F)c(C(=O)N3CC(COc4ccc(-c5ccncc5F)cc4F)C3)cc2N1` [Example 242, 7-fluoro-6-((3-((2-fluoro-4-(3-fluoropyridin-4-yl)phenoxy)methyl)azetidin-1-yl)carbonyl)-2H-1,4-benzoxazin-3(4H)-one] in this work.

An inhibition at 10 µM of 101% was found for `O=C1COc2cc(F)c(C(=O)N3CC(COc4ccc(Cl)cc4-c4ccc(F)cn4)C3)cc2N1` [Example 195, 6-((3-((4-chloro-2-(5-fluoropyridin-2-yl)phenoxy)methyl)azetidin-1-yl)carbonyl)-7-fluoro-2H-1,4-benzoxazin-3(4H)-one] in this work.

An inhibition at 10 µM of 102% was found for `O=C1COc2cc(F)c(C(=O)N3CC(COc4ccc(Cl)cc4F)C3)cc2N1` [Example 126, 6-((3-((4-chloro-2-fluorophenoxy)methyl)azetidin-1-yl)carbonyl)-7-fluoro-2H-1,4-benzoxazin-3(4H)-one] in this work.
